Data: patent US20210346359A1, “Use of CFTR Modulators For Treating Cerebrovascular Conditions” (Qanatpharma AG, priority 2018, published 2021)
Entries after “also recorded” stand apart in the source; their conditions may differ.

Key:
CFTR = CFTR (Mus musculus, UniProt P26361); assay: CFTR protein expression in TNF-treated mesenteric artery primary vascular smooth muscle cells; type: cell-based; parameters: mesenteric artery segments were isolated, cut into small pieces and digested with trypsin, collagenase and elastase; endogenous in cells; host or cells: primary mesenteric artery vascular smooth muscle cells; conditions: 48 h TNF 10 ng/ml + C18 6 μmol/L for last 24 h
CFTR, sequence (P26361 whole entry): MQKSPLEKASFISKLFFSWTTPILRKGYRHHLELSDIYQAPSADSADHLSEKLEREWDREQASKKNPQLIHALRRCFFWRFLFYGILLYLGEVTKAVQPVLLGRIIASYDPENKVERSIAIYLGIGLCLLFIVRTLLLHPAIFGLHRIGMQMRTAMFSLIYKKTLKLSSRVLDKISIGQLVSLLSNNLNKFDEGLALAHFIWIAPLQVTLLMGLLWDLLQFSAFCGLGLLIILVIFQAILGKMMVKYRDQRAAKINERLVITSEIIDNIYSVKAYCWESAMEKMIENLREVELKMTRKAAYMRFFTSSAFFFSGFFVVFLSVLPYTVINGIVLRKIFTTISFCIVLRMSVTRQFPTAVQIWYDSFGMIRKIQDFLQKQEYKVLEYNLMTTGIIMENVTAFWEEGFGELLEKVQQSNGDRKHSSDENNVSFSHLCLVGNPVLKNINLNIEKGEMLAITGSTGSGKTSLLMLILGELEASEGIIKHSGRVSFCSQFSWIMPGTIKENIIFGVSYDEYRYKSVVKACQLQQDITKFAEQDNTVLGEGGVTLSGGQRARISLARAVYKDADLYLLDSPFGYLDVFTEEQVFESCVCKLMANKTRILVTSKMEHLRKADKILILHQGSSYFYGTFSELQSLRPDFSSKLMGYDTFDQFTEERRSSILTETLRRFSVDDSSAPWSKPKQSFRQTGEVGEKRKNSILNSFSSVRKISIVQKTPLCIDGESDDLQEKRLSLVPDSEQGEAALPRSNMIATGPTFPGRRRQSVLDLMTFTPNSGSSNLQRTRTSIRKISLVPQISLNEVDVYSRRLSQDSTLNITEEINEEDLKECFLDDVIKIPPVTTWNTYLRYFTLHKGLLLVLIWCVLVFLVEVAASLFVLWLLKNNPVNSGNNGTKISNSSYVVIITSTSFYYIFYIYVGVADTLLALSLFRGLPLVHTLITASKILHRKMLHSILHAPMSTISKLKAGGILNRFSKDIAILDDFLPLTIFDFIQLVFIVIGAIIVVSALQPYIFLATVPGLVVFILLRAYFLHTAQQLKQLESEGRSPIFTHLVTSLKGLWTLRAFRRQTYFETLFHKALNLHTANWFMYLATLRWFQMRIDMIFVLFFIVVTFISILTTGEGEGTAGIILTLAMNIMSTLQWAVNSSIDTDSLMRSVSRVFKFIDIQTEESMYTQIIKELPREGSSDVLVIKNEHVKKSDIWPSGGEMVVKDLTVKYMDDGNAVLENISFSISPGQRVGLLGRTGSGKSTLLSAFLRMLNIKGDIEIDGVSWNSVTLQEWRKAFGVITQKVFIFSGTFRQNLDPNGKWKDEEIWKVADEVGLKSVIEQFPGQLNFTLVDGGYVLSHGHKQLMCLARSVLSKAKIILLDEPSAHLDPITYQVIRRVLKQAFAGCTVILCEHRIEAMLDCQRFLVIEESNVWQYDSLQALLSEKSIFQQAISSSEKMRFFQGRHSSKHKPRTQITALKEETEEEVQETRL
Method: Procedures for isolating and culturing mesenteric artery smooth muscle cells were carried out as described in (10). Briefly, mesenteric artery segments were isolated, cut into small pieces and digested with trypsin, collagenase and elastase. The resulting cell suspension was washed several times in phosphate-buffered saline and plated in Dulbecco's Modified Eagle Medium (DMEM) culture media containing 10% fetal bovine serum and 1% penicillin-streptomycin. Cell cultures were maintained at 37° C. with 5% CO2 and split at […] cells seeding density. Baby hamster kidney fibroblast cells stably expressing wild-type human CFTR (10,17) were maintained in DMEM/F12 media containing 5% fetal bovine serum and 250 μmol/L methotrexate (which activates the CFTR transgene promoter). Cells were maintained under standard cell culture conditions at 37° C. with 5% CO2.
Western blots for CFTR were completed as previously described (12, 18). […]
The primary antibodies were conjugated with either peroxidase-labeled donkey anti-rabbit IgG (GE Healthcare Amersham (Piscataway, USA) cat# NA934) or peroxidase-labeled goat anti-mouse IgG (GE Healthcare Amersham cat# NA931) secondary antibodies. […] Developed films were evaluated densitometrically using “Image J” software (freely available from the NIH); digital images were evaluated with Image Lab software (Bio-Rad).

wild-type CFTR = wild-type CFTR (Homo sapiens, UniProt P13569); conditions: demonstrated earlier (15); cited from earlier work
wild-type CFTR, sequence (P13569 whole entry, species assumed): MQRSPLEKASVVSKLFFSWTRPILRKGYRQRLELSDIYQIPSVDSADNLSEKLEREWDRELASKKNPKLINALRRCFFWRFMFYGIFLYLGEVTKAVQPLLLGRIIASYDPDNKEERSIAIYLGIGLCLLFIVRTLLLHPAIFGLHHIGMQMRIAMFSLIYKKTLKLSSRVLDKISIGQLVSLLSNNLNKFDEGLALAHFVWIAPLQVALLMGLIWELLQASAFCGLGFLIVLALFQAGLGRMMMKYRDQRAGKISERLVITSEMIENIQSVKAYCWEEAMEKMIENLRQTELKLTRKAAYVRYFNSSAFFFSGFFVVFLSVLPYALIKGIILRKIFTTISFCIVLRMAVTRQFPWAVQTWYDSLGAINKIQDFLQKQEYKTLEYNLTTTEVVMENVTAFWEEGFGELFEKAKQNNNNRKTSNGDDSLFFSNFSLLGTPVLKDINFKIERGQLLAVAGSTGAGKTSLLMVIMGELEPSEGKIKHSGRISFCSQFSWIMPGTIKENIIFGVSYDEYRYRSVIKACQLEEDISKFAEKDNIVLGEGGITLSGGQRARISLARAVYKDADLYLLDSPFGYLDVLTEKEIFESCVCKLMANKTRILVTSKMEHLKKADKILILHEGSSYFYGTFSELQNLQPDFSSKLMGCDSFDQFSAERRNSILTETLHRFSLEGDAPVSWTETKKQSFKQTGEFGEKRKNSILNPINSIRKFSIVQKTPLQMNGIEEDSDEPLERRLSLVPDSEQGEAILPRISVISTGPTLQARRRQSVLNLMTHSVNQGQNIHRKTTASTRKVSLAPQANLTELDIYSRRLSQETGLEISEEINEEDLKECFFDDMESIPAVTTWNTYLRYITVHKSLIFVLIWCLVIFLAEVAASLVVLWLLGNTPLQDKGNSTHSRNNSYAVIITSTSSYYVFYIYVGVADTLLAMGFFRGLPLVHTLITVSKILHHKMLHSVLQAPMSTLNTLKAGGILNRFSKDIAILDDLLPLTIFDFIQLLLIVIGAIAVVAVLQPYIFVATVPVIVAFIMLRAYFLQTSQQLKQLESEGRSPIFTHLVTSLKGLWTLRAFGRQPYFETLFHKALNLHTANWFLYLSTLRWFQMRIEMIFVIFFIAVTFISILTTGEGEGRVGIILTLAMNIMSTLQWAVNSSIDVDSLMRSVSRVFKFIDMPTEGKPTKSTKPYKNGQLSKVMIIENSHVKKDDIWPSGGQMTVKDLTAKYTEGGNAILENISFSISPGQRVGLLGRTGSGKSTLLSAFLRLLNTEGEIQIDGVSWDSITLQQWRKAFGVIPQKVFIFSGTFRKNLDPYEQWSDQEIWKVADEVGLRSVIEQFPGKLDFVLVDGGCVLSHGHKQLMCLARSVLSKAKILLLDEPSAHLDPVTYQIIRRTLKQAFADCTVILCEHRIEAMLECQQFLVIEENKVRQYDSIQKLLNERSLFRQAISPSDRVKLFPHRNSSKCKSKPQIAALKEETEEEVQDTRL

[1] = tested on: posterior cerebral arteries; assay: Phenylephrine responses of isolated posterior cerebral arteries; type: in vivo, mouse
Method: Isolation and functional assessment of resistance arteries: Mouse olfactory (a first branch of the anterior cerebral artery) and PCAs were carefully dissected, cannulated onto micropipettes, stretched to their in vivo lengths and pressurized to 45 mmHg, as previously described (3,6); mouse skeletal muscle resistance arteries were dissected from the cremaster muscle, cannulated and pressurized to 60 mmHg. All functional experiments were conducted in 3-morpholinopropanesulfonic acid (MOPS) buffered saline at 37° C. with no perfusion. Vasomotor responses to phenylephrine (5 μmol/L for posterior cerebral arteries, 10 μmol/L for cremaster skeletal muscle arteries) provided an assessment of vessel viability at the beginning and end of each experiment. Arteries failing to show ≥25% constriction to phenylephrine were excluded.
(§1) Myogenic tone was calculated as the percent constriction in relation to the maximal diameter at each respective transmural pressure: tone (% of diamax)=[(diamax−diaactive)/diamax]×100, where diaactive is the vessel diameter in MOPS containing Ca^2+ and diamax is the diameter in Ca^2+-free MOPS. Analyses of vasomotor responses to phenylephrine used the same calculation, only in this case, diaactive represents the vessel diameter at steady state following application of the given agent and diamax represents the maximal diameter measured under Ca^2+-free conditions.

[2] = tested on: posterior cerebral arteries; assay: Myogenic tone of isolated posterior cerebral arteries after in vivo treatment; parameters: species or system mouse
Excerpt: Myocardial infarction: HF was induced by surgical ligation of the left anterior descending coronary artery (3). Briefly, mice were anaesthetized with isoflurane, intubated with a 20-gauge angiocatheter and ventilated with room air. Under sterile conditions, the thorax and pericardium were opened, and the left anterior descending coronary artery was permanently ligated with 7-0 silk suture (Deknatel: Fall River, USA). In sham-operated controls, the thorax and pericardium were opened, but the left anterior descending coronary artery was not ligated. Following the procedure, the chest was closed and the mice were extubated upon spontaneous respiration. Posterior cerebral arteries (PCAs) were isolated 4-6 weeks post-infarction. […]
Myogenic responses were elicited by step-wise 20 mmHg increases in transmural pressure from 20 mmHg to 80 mmHg (olfactory arteries) or 100 mmHg (posterior cerebral arteries and cremaster skeletal muscle resistance arteries). At each pressure step, vessel diameter (diaactive) was measured once a steady state was reached (5 min). Vessels requiring treatment (e.g., CFTR(inh)-172) were incubated with the reagent in MOPS for 30 min and myogenic responses were then assessed in the presence of that reagent. Following completion of all diaactive measurements, MOPS buffer was replaced with a Ca^2+-free version and maximal passive diameter (diamax) was recorded at each pressure step.
as §1

What does the source list for `O=C(Nc1ncc(C(c2ccccc2Cl)N2CCC(O)C2)s1)C1(c2ccc3c(c2)OCO3)CC1` (stereo not shown) [C18, 1-(benzo[d][1,3]dioxol-5-yl)-N-(5-((2-chlorophenyl)(3-hydroxypyrrolidin-1-yl)methyl)thiazol-2-yl)cyclopropanecarboxamide]?
CFTR protein expression after TNF down-regulation (CFTR): reverses the decline; also recorded: fully restores; interaction with wild-type CFTR / CFTR expression at the plasma membrane (wild-type CFTR): directly interacts with and stabilizes wild-type CFTR; phenylephrine dose-response relationship ([1]; posterior cerebral arteries from CFTR knockout mice, 3 mg/kg i.p. daily for 2 days, 3 mg/kg): not affected; also recorded: does not alter; phenylephrine dose-response relationship normalized to basal tone, HF vs HF+C18 ([1]; posterior cerebral arteries from HF mice, 3 mg/kg i.p. daily for 2 days, 3 mg/kg): curves overlap; also recorded: not significantly different; phenylephrine dose-response relationship (tone), HF vs HF+C18 ([1]; posterior cerebral arteries from HF mice, 3 mg/kg i.p. daily for 2 days, not normalized, 3 mg/kg): significant difference; phenylephrine responses ([1]; posterior cerebral arteries from sham-operated mice, 3 mg/kg i.p. daily for 2 days, 3 mg/kg): does not affect; also recorded: does not alter; log EC50 of phenylephrine response ([1]; posterior cerebral arteries, HF+C18 group, log scale): −5.94±0.21; posterior cerebral artery myogenic tone ([2]; arteries from CFTR knockout mice, in vivo 3 mg/kg daily for 2 days): not susceptible; also recorded: not observed; posterior cerebral artery myogenic tone ([2]; arteries from HF mice, in vivo 3 mg/kg daily for 2 days): normalizes; also recorded: reduces; posterior cerebral artery myogenic tone ([2]; arteries from sham-operated mice, in vivo 3 mg/kg i.p. daily for 2 days): does not affect; also recorded: does not alter
